In ChEMBL document CHEMBL5357034, “Antimicrobial and Anti-inflammatory Cyclic Tetrapeptides from the Co-cultures of Two Marine-Derived Fungi” (2024):
Square brackets hold non-standard residues; d marks the D form. Peptide text beside a SMILES is read from it. NMeA = CN[C@@H](C)C(=O)O

How the values were obtained:
Assay type in all cases: functional
Edwardsiella tarda [1] = assay: Antimicrobial activity against Edwardsiella tarda ATCC15947 assessed as inhibition of microbial growth incubated for 24 hrs by broth microdilution method
Edwardsiella tarda [2] = assay: Antimicrobial activity against Edwardsiella tarda QDIO-2 assessed as inhibition of microbial growth incubated for 24 hrs by broth microdilution method
Edwardsiella ictaluri = assay: Antimicrobial activity against Edwardsiella ictaluri ATCC33202 assessed as inhibition of microbial growth incubated for 24 hrs by broth microdilution method
Staphylococcus aureus [3] = assay: Antimicrobial activity against Staphylococcus aureus ATCC 29213 assessed as inhibition of microbial growth incubated for 24 hrs by broth microdilution method
Staphylococcus aureus [4] = assay: Antimicrobial activity against methicillin-resistant Staphylococcus aureus ATCC 33591 assessed as inhibition of microbial growth incubated for 24 hrs by broth microdilution method
Staphylococcus aureus [5] = assay: Antimicrobial activity against methicillin-resistant Staphylococcus aureus ATCC R6101 assessed as inhibition of microbial growth incubated for 24 hrs by broth microdilution method
Bacillus subtilis = assay: Antimicrobial activity against Bacillus subtilis ATCC 6633 assessed as inhibition of microbial growth incubated for 24 hrs by broth microdilution method
Escherichia coli = assay: Antimicrobial activity against Escherichia coli ATCC 25922 assessed as inhibition of microbial growth incubated for 24 hrs by broth microdilution method
Acinetobacter baumannii = assay: Antimicrobial activity against Acinetobacter baumannii 2799 assessed as inhibition of microbial growth incubated for 24 hrs by broth microdilution method
Pseudomonas aeruginosa = assay: Antimicrobial activity against Pseudomonas aeruginosa ATCC 27853 assessed as inhibition of microbial growth incubated for 24 hrs by broth microdilution method
Candida albicans = assay: Antimicrobial activity against Candida albicans ATCC 10213 assessed as inhibition of microbial growth incubated for 24 hrs by broth microdilution method
RAW264.7 [6] = assay: Anti-inflammatory activity in LPS-induced mouse RAW264.7 cells assessed as inhibition of IL-6 production at 10 uM preincubated with compound for 24 hrs followed by compound replacement with DMEM media and measured 6 hrs after LPS stimulation by qRT-PCR analysis relative to control
RAW264.7 [7] = assay: Anti-inflammatory activity in LPS-induced mouse RAW264.7 cells assessed as inhibition of MCP-1 production at 10 uM preincubated with compound for 24 hrs followed by compound replacement with DMEM media and measured 6 hrs after LPS stimulation by qRT-PCR analysis relative to control
RAW264.7 [8] = assay: Anti-inflammatory activity in LPS-induced mouse RAW264.7 cells assessed as inhibition of TNF-alpha production at 10 uM preincubated with compound for 24 hrs followed by compound replacement with DMEM media and measured 6 hrs after LPS stimulation by qRT-PCR analysis relative to control

SMILES	MIC (Edwardsiella tarda [1]) [µg/mL]	MIC (Edwardsiella tarda [2]) [µg/mL]	MIC (Edwardsiella ictaluri) [µg/mL]	MIC (Staphylococcus aureus [3]) [µg/mL]	MIC (Staphylococcus aureus [4]) [µg/mL]	MIC (Staphylococcus aureus [5]) [µg/mL]	MIC (Bacillus subtilis) [µg/mL]	MIC (Escherichia coli) [µg/mL]	MIC (Acinetobacter baumannii) [µg/mL]	MIC (Pseudomonas aeruginosa) [µg/mL]	MIC (Candida albicans) [µg/mL]	inhibition at 10 µM (RAW264.7 [6]) [%]	inhibition at 10 µM (RAW264.7 [7]) [%]	inhibition at 10 µM (RAW264.7 [8]) [%]
CC(C)Cc1cnc(CC(C)C)c(=O)[nH]1	128	128	64	> 128	> 128	> 128	> 128	> 128	> 128	> 128	> 128			
CC(C)Cc1ncc([C@@H](O)C(C)C)n(O)c1=O	128	128	64	32	16	> 128	128	> 128	128	> 128	32			
CC[C@H](C)[C@@H]1NC(=O)[C@H](C)NC(=O)[C@H](Cc2ccc(OC)cc2)NC(=O)[C@H](C)N(C)C1=O (cyclo(AI[NMeA]Y(Me)))												67	12	6.6
CC[C@H](C)[C@@H]1NC(=O)[C@H]([C@@H](C)O)NC(=O)[C@H](Cc2ccccc2)NC(=O)[C@H](C)N(C)C1=O (cyclo(FTI[NMeA]))	> 128	128	128	> 128	> 128	> 128	> 128	> 128	> 128	> 128	> 128	61	56	13
CC[C@H](C)[C@@H]1NC(=O)[C@H]([C@@H](C)O)NC(=O)[C@H](Cc2ccc(OC)cc2)NC(=O)[C@@H]2CCCN2C1=O (cyclo(IPY(Me)T))	> 128	> 128	> 128	> 128	> 128	> 128	> 128	> 128	> 128	> 128	> 128	63	42	16
CC[C@H](C)[C@@H]1NC(=O)[C@H]([C@@H](C)O)NC(=O)[C@H](Cc2ccc(OC)cc2)NC(=O)[C@H](C)N(C)C1=O (cyclo(I[NMeA]Y(Me)T))	128	> 128	64	> 128	> 128	> 128	> 128	> 128	> 128	> 128	> 128	55	44	24
COc1ccc(C[C@@H]2NC(=O)[C@H](C)N(C)C(=O)[C@H](CC(C)C)NC(=O)[C@H]([C@@H](C)O)NC2=O)cc1 (cyclo(L[NMeA]Y(Me)T))	128	> 128	> 128	> 128	> 128	> 128	> 128	> 128	> 128	> 128	> 128	55	41	15
CO[C@H]1/C=C/O[C@@]2(C)Oc3c(C)c(O)c4c(O)c(c(/C=N/N5CCN(C)CC5)c(O)c4c3C2=O)NC(=O)/C(C)=C\C=C\[C@H](C)[C@H](O)[C@@H](C)[C@@H](O)[C@@H](C)[C@H](OC(C)=O)[C@@H]1C [RIFAMPIN]	2	4	8	< 0.25	< 0.25	8	< 0.25	4	1	8	< 0.25			
CN[C@H](CC(C)C)C(=O)N[C@H]1C(=O)N[C@@H](CC(N)=O)C(=O)N[C@H]2C(=O)N[C@H]3C(=O)N[C@H](C(=O)N[C@H](C(=O)O)c4cc(O)cc(O)c4-c4cc3ccc4O)[C@H](O)c3ccc(c(Cl)c3)Oc3cc2cc(c3O[C@@H]2O[C@H](CO)[C@@H](O)[C@H](O)[C@H]2O[C@H]2C[C@](C)(N)[C@H](O)[C@H](C)O2)Oc2ccc(cc2Cl)[C@H]1O [VANCOMYCIN]	> 128	> 128	> 128			> 128	< 0.25	128	64	> 128	< 0.25			
